Tested on: HCV Huh-luc/neo-ET replicon cells
Test: Luciferase-Based HCV Replicon Assay (EC50 (1b))
Assay type: cell-based
Conditions: Hepatitis C virus, 72 hours exposure, luciferase activity
Description: Luciferase-Based HCV Replicon Assay Protocol (EC50 (1b))
The cell culture component of the assay was performed essentially as described by Bartenschlager et al., Hepatology 2002, 35, 694-703, wherein exponentially growing HCV Huh-luc/neo-ET replicon cells were seeded at 6×10^3 cells/well in 96 well assay plate. 24 hours later the cells were treated with various concentrations of compound in triplicate. After 72 hours exposure to the compound, the luciferase activity in the wells was determined using Bright-Glo reagent (Promega, Madison, Wis.) with a luminometer (Wallac 1420 Multilabel HTS Counter Victor 2). The background control was replicon cells treated with 100 nM BILN-2061, an inhibitor of the HCV protease. % Inhibition was determined for each compound concentration in relation to the negative (no compound) control to calculate the EC50 (1b).

| Structure (SMILES) | EC50 |
| --- | --- |
| CS(=O)(=O)NCc1csc2c1S(=O)(=O)N=C(C1=C(O)CC(C3CCC3)N(Cc3ccc(F)cc3)C1=O)N2 (racemic) [Example 6, rac-N-{3-[6-Cyclobutyl-1-(4-fluoro-benzyl)-4-hydroxy-2-oxo-1,2,5,6-tetrahydro-pyridin-3-yl]-1,1-dioxo-1,4-dihydro-1λ^6-thieno[2,3-e][1,2,4]thiadiazin-7-ylmethyl}-methanesulfonamide] | 100 to 1000 nM |
| NS(=O)(=O)NCc1csc2c1S(=O)(=O)N=C(C1=C(O)[C@@H]3[C@H]4CC[C@H](C4)[C@@H]3N(Cc3ccc(F)cc3)C1=O)N2 [Example 34, N-{3-[(1R,2S,7R,8S)-3-(4-Fluoro-benzyl)-6-hydroxy-4-oxo-3-aza-tricyclo[6.2.1.0^2,7]undec-5-en-5-yl]-1,1-dioxo-1,4-dihydro-1λ^6-thieno[2,3-e][1,2,4]thiadiazin-7-ylmethyl}-sulfamide] | 100 to 1000 nM |
| CS(=O)(=O)NCc1csc2c1S(=O)(=O)N=C(C1=C(O)C3C4CCCC(CC4)C3N(Cc3ccc(F)cc3)C1=O)N2 (racemic) [Example 142, (rac-di-exo)-N-{3-[3-(4-Fluoro-benzyl)-6-hydroxy-4-oxo-3-aza-tricyclo[6.3.2.0^2,7]tridec-5-en-5-yl]-1,1-dioxo-1,4-dihydro-1λ^6-thieno[2,3-e][1,2,4]thiadiazin-7-ylmethyl}-methanesulfonamide] | 20 to 100 nM |
| CC(C)(C)CCN1C(=O)C(C2=NS(=O)(=O)c3c(CNS(C)(=O)=O)csc3N2)=C(O)[C@@H]2[C@@H]3CC[C@@H](C3)[C@@H]21 [Example 59, N-{3-[(1S,2S,7R,8R)-3-(3,3-Dimethyl-butyl)-6-hydroxy-4-oxo-3-aza-tricyclo[6.2.1.0^2,7]undec-5-en-5-yl]-1,1-dioxo-1,4-dihydro-1λ^6-thieno[2,3-e][1,2,4]thiadiazin-7-ylmethyl}-methanesulfonamide] | 20 to 100 nM |
| CC(C)(C)CCN1C(=O)C(C2=NS(=O)(=O)c3c(CNS(C)(=O)=O)csc3N2)=C(O)[C@@H]2CCC[C@@H]21 [Example 129, (4aR,7aS)-N-{3-[1-(3,3-Dimethyl-butyl)-4-hydroxy-2-oxo-2,4a,5,6,7,7a-hexahydro-1H-[1]pyrindin-3-yl]-1,1-dioxo-1,4-dihydro-1λ^6-thieno[2,3-e][1,2,4]thiadiazin-7-ylmethyl}-methanesulfonamide] | 5 to 20 nM |
| CS(=O)(=O)NCc1csc2c1S(=O)(=O)N=C(C1=C(O)[C@@H]3[C@H]4CC[C@H](C4)[C@@H]3N(Cc3ccc(F)c(Cl)c3)C1=O)N2 [Example 37, N-{3-[(1R,2S,7R,8S)-3-(3-Chloro-4-fluoro-benzyl)-6-hydroxy-4-oxo-3-aza-tricyclo[6.2.1.0^2,7]undec-5-en-5-yl]-1,1-dioxo-1,4-dihydro-1λ^6-thieno[2,3-e][1,2,4]thiadiazin-7-ylmethyl}-methanesulfonamide] | 5 to 20 nM |
| CS(=O)(=O)NCc1csc2c1S(=O)(=O)N=C(C1=C(O)[C@@H]3[C@H]4CC[C@H](C4)[C@@H]3N(Cc3ccc(F)cc3Cl)C1=O)N2 [Example 94, N-{3-[(1R,2S,7R,8S)-3-(2-Chloro-4-fluoro-benzyl)-6-hydroxy-4-oxo-3-aza-tricyclo[6.2.1.0^2,7]undec-5-en-5-yl]-1,1-dioxo-1,4-dihydro-1λ^6-thieno[2,3-e][1,2,4]thiadiazin-7-ylmethyl}-methanesulfonamide] | 20 to 100 nM |
| CS(=O)(=O)NCc1csc2c1S(=O)(=O)N=C(C1=C(O)C3CCCCCC3N(Cc3ccc(F)c(F)c3)C1=O)N2 (racemic) [Example 137, (rac-cis)-N-{3-[1-(3,4-Difluoro-benzyl)-4-hydroxy-2-oxo-2,4a,5,6,7,8,9,9a-octahydro-1H-cyclohepta[b]pyridin-3-yl]-1,1-dioxo-1,4-dihydro-1λ^6-thieno[2,3-e][1,2,4]thiadiazin-7-ylmethyl}-methanesulfonamide] | 100 to 1000 nM |
| Cc1cc(CN2C(=O)C(C3=NS(=O)(=O)c4c(CNS(C)(=O)=O)csc4N3)=C(O)[C@@H]3[C@@H]4CC[C@@H](C4)[C@@H]32)ccc1F [Example 56, N-{3-[(1S,2S,7R,8R)-3-(4-Fluoro-3-methyl-benzyl)-6-hydroxy-4-oxo-3-aza-tricyclo[6.2.1.0^2,7]undec-5-en-5-yl]-1,1-dioxo-1,4-dihydro-1λ^6-thieno[2,3-e][1,2,4]thiadiazin-7-ylmethyl}-methanesulfonamide] | 20 to 100 nM |
| CC(C)(C)CCN1C(=O)C(C2=NS(=O)(=O)c3c(CNS(C)(=O)=O)csc3N2)=C(O)C2C3CCC(O3)C21 (racemic) [Example 62, (rac-di-exo)-N-{3-[3-(3,3-Dimethyl-butyl)-6-hydroxy-4-oxo-11-oxa-3-aza-tricyclo[6.2.1.0^2,7]undec-5-en-5-yl]-1,1-dioxo-1,4-dihydro-1λ^6-thieno[2,3-e][1,2,4]thiadiazin-7-ylmethyl}-methanesulfonamide] | 5 to 20 nM |
| CS(=O)(=O)NCc1csc2c1S(=O)(=O)N=C(C1=C(O)[C@@H]3CCC[C@@H]3N(Cc3ccc(F)cc3Cl)C1=O)N2 [Example 111, (4aR,7aS)-N-{3-[1-(2-Chloro-4-fluoro-benzyl)-4-hydroxy-2-oxo-2,4a,5,6,7,7a-hexahydro-1H-[1]pyrindin-3-yl]-1,1-dioxo-1,4-dihydro-1λ^6-thieno[2,3-e][1,2,4]thiadiazin-7-ylmethyl}-methanesulfonamide] | 100 to 1000 nM |
| CS(=O)(=O)NCc1csc2c1S(=O)(=O)N=C(C1=C(O)[C@@H]3[C@H]4CC[C@H](C4)[C@@H]3N(CC3(C(F)(F)F)CC3)C1=O)N2 [Example 29, N-{3-[(1R,2S,7R,8S)-6-Hydroxy-4-oxo-3-(1-trifluoromethyl-cyclopropylmethyl)-3-aza-tricyclo[6.2.1.0^2,7]undec-5-en-5-yl]-1,1-dioxo-1,4-dihydro-1λ^6-thieno[2,3-e][1,2,4]thiadiazin-7-ylmethyl}-methanesulfonamide] | 5 to 20 nM |
| CC(C)CC1CN(Cc2ccc(F)cc2)C(=O)C(C2=NS(=O)(=O)c3c(CNS(C)(=O)=O)csc3N2)=C1O (racemic) [Example 17, rac-N-{3-[1-(4-Fluoro-benzyl)-4-hydroxy-5-isobutyl-2-oxo-1,2,5,6-tetrahydro-pyridin-3-yl]-1,1-dioxo-1,4-dihydro-1λ^6-thieno[2,3-e][1,2,4]thiadiazin-7-ylmethyl}-methanesulfonamide] | 100 to 1000 nM |
| CS(=O)(=O)NCc1csc2c1S(=O)(=O)N=C(C1=C(O)C3CCCCCC3N(Cc3ccsc3)C1=O)N2 (racemic) [Example 141, (rac-cis)-N-[3-(4-Hydroxy-2-oxo-1-thiophen-3-ylmethyl-2,4a,5,6,7,8,9,9a-octahydro-1H-cyclohepta[b]pyridin-3-yl)-1,1-dioxo-1,4-dihydro-1λ^6-thieno[2,3-e][1,2,4]thiadiazin-7-ylmethyl]-methanesulfonamide] | > 1000 nM |
| CS(=O)(=O)NCc1csc2c1S(=O)(=O)N=C(C1=C(O)[C@@H]3CCC[C@@H]3N(Cc3ccc(F)c(F)c3)C1=O)N2 [Example 125, (4aR,7aS)-N-{3-[1-(3,4-Difluoro-benzyl)-4-hydroxy-2-oxo-2,4a,5,6,7,7a-hexahydro-1H-[1]pyrindin-3-yl]-1,1-dioxo-1,4-dihydro-1λ^6-thieno[2,3-e][1,2,4]thiadiazin-7-ylmethyl}-methanesulfonamide] | 20 to 100 nM |
| CS(=O)(=O)NCc1csc2c1S(=O)(=O)N=C(C1=C(O)[C@@H]3[C@@H]4CC[C@@H](C4)[C@@H]3NC1=O)N2 [Example 81, N-[3-((1S,2S,7R,8R)-6-Hydroxy-4-oxo-3-aza-tricyclo[6.2.1.0^2,7]undec-5-en-5-yl)-1,1-dioxo-1,4-dihydro-1λ^6-thieno[2,3-e][1,2,4]thiadiazin-7-ylmethyl]-methanesulfonamide] | > 1000 nM |
| CS(=O)(=O)NCc1csc2c1S(=O)(=O)N=C(C1=C(O)C(C3CCCC3)CN(Cc3ccc(F)cc3)C1=O)N2 (racemic) [Example 16, rac-N-{3-[5-Cyclopentyl-1-(4-fluoro-benzyl)-4-hydroxy-2-oxo-1,2,5,6-tetrahydro-pyridin-3-yl]-1,1-dioxo-1,4-dihydro-1λ^6-thieno[2,3-e][1,2,4]thiadiazin-7-ylmethyl}-methanesulfonamide] | 20 to 100 nM |
| CC(C)CCN1C(=O)C(C2=NS(=O)(=O)c3c(CNS(C)(=O)=O)csc3N2)=C(O)[C@@H]2[C@H]3CC[C@H](C3)[C@@H]21 [Example 68, N-{3-[(1R,2S,7R,8S)-6-Hydroxy-3-(3-methyl-butyl)-4-oxo-3-aza-tricyclo[6.2.1.0^2,7]undec-5-en-5-yl]-1,1-dioxo-1,4-dihydro-1λ^6-thieno[2,3-e][1,2,4]thiadiazin-7-ylmethyl}-methanesulfonamide] | 5 to 20 nM |
| CCC1CN(Cc2ccc(F)cc2)C(=O)C(C2=NS(=O)(=O)c3c(CNS(C)(=O)=O)csc3N2)=C1O (racemic) [Example 18, rac-N-{3-[5-Ethyl-1-(4-fluoro-benzyl)-4-hydroxy-2-oxo-1,2,5,6-tetrahydro-pyridin-3-yl]-1,1-dioxo-1,4-dihydro-1λ^6-thieno[2,3-e][1,2,4]thiadiazin-7-ylmethyl}-methanesulfonamide] | 100 to 1000 nM |
| CS(=O)(=O)NCc1csc2c1S(=O)(=O)N=C(C1=C(O)C3CCCCC3N(Cc3ccc(F)cc3)C1=O)N2 (racemic) [Example 116, (rac-cis)-N-{3-[1-(4-Fluoro-benzyl)-4-hydroxy-2-oxo-1,2,4a,5,6,7,8,8a-octahydro-quinolin-3-yl]-1,1-dioxo-1,4-dihydro-1λ^6-thieno[2,3-e][1,2,4]thiadiazin-7-ylmethyl}-methanesulfonamide] | 20 to 100 nM |
| CS(=O)(=O)NCc1csc2c1S(=O)(=O)N=C(C1=C(O)[C@@H]3[C@@H]4CC[C@@H](C4)[C@@H]3N(Cc3ccc(F)c(F)c3)C1=O)N2 [Example 41, N-{3-[(1S,2S,7R,8R)-3-(3,4-Difluoro-benzyl)-6-hydroxy-4-oxo-3-aza-tricyclo[6.2.1.0^2,7]undec-5-en-5-yl]-1,1-dioxo-1,4-dihydro-1λ^6-thieno[2,3-e][1,2,4]thiadiazin-7-ylmethyl}-methanesulfonamide] | 5 to 20 nM |

From patent US8222404B2, “[1,2,4]Thiadiazin-3-yl acetic acid compound and methods of making the acetic acid compound” (Anadys Pharmaceuticals, Inc., priority 2008, dated 2012)
